# Measured values from PMC3227451, “Structure-based development of novel sirtuin inhibitors” (Aging (Albany NY), 2011).
# Where two headings read alike, the source gives them in different places.
# Key:
# Format in all cases: biochemical
# Sirt6 = biological target: T1, Sirt6 (Homo sapiens, UniProt Q8N6T7); test: Fluor-de-Lys peptide deacetylation assay, Sirt6
# T1 construct: Sirt6 residues 13-308; His-tag with linker comprising a TEV protease cleavage site (N, cleaved yes); made in house; host or cells: E. coli Rosetta2
# Protocol: (§1) The commercial Fluor-de-Lys (FdL) assay kits 1 and 2 (Biomol, Plymouth Meeting, USA) were used to test the deacetylase activity of the four Sirtuins. In both kits the substrate derived from p53 is composed of three amino acids, the acetyl lysine and a C-terminally attached fluorophor. For Sirt2 and 3, FdL-2 peptide (QPK(acetyl-K)) was used, and FdL-1 peptide (RHK(acetyl-K)) for Sirt5 and Sirt6. All tests were done with 0.1 mM of the respective FdL peptide and 0.5 mM NAD^+ as substrates.
# (§2) NCI compound stocks were prepared by dissolving them in DMSO at a concentration of 5 mM. The initial screens with all 40 compounds contained 5 μl Sirtuin solution (Sirt2/3 0.1 mg/ml stock concentration; Sirt5/6 1 mg/ml), 1 μl of compound stock (resulting in a 100 μM end concentration), 15 μl FdL substrate, and assay buffer (supplied in the assay kit) to a total volume of 50 μl. As control reactions, peptide with either the compound (without Sirtuin) or with Sirtuin and DMSO instead of compound were measured. After starting the reactions by adding the FdL substrate, assays were incubated for 30 min at 37 °C. Subsequently, 50 μl of a 10 mg/ml trypsin stock (“Developer solution”) were added and the reactions were incubated for 45 min at room temperature. Fluorescence values were measured in a fluorometric plate reader with excitation at 360 nm and read out at 485 nm. Values were then corrected with the control reaction (same compound, but without Sirtuin).
# (§3) All measurements shown are averages of duplicates (screen) or triplicates (dose-response curves), and representatives of at least two independent replications. Error bars indicate standard deviations.
# Sirt3 = biological target: T2, Sirt3 (Homo sapiens, UniProt Q9NTG7); test: Fluor-de-Lys peptide deacetylation assay, Sirt3
# T2 construct: Sirt3 residues 114-399; His-tag with linker comprising a TEV protease cleavage site (N); made in house; host or cells: E. coli
# T2 sequence (Q9NTG7 114-399): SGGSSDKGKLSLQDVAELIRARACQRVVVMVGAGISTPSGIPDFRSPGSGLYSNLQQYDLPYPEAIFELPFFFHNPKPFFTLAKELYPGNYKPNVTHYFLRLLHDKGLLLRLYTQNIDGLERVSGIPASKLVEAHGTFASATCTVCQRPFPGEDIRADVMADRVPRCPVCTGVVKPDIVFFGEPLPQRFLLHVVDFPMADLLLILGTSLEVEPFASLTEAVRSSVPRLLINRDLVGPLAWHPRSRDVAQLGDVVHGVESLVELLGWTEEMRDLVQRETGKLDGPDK
# Protocol: (§4) Sirt3 was expressed in E. coli and purified via Ni-NTA and size exclusion chromatography as described elsewhere, and Sirt5 according to the protocol of Schuetz et al.. […] The protein was bound to the HiTrapQ column in buffer A and eluted in a gradient to buffer A supplemented with 400 mM KCl. Fractions were analyzed by SDS-PAGE, and the Sirt1 fractions were pooled and transferred into buffer A using a NAP column (GE Healthcare).
# as §1, §2, §3
# Sirt5 = biological target: T3, Sirt5 (Homo sapiens, UniProt Q9NXA8); test: Fluor-de-Lys peptide deacetylation assay, Sirt5
# T3 construct: Sirt5 residues 34-302; His-tag with linker comprising a TEV protease cleavage site (N); made in house
# T3 sequence (Q9NXA8 34-302): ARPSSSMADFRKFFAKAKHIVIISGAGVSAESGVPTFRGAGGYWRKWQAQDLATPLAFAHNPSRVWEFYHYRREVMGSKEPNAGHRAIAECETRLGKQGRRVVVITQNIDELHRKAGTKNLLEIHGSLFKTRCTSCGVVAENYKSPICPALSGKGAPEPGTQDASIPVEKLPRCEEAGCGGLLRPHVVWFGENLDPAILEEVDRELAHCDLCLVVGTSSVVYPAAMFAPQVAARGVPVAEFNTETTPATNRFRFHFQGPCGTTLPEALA
# Protocol: as §4, §1, §2, §3
# Sirt2 = biological target: T4, Sirt2 (Homo sapiens, UniProt Q8IXJ6); test: Fluor-de-Lys peptide deacetylation assay, Sirt2
# T4 sequence (Q8IXJ6 34-356): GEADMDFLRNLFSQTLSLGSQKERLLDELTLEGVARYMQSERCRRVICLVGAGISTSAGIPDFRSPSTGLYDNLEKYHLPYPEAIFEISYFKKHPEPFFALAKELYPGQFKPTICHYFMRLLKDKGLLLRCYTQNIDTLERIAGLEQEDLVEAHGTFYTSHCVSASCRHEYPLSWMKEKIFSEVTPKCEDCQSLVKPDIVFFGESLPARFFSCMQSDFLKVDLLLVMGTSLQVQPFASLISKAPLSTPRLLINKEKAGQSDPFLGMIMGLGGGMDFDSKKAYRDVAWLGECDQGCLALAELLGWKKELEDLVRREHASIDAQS
# Protocol: The Sirt2 construct was expressed in E. coli Rosetta2 cells (Merck) in LB/Ampicillin/Chloramphenicol medium. Cells were grown at 37 °C, and expression induced at an OD600 of 0.6-0.8 for 4 h with 0.5 mM IPTG. Harvested cells were resuspended in buffer A (50 mM Tris/HCl pH 7.8, 200 mM NaCl, 2 mM DTT), disrupted with a Sonifier, and cell debris removed by 40 min centrifugation at 4 °C, 18000 rpm in a HFA22.50 rotor. The supernatant was supplemented with 10 mM imidazole and incubated with Ni-NTA resin for 1 h at 4 °C. […] The protein was concentrated in an amicon unit (Millipore, Billerica, USA) and digested over night at 4 °C with TEV-protease. The protease was removed from cleaved Sirt2 by incubation with Ni-NTA resin for 1 h at 4 °C. The protein was concentrated, 1:5 diluted with 50 mM Tris/HCl, pH 7.8, and applied to a HiTrap Q anion exchange column (GE Healthcare) equilibrated with 50 mM Tris/HCl, pH 7.8, 50 mM NaCl, 2 mM DTT and eluted with a gradient (20 column volumes) to 50 mM Tris/HCl, pH 7.8, 1 M NaCl, 2 mM DTT. Sirt2 was then applied to a Superdex200 gel filtration column (GE Healthcare) equilibrated in 20 mM Tris/HCl, pH 7.8, 150 mM NaCl, 2 mM DTT. The eluted protein was analyzed by SDS-PAGE, re-concentrated, and shock-frozen in liquid nitrogen for storage at -80 °C.
# as §1, §2, §3
# [1] = 100 μM compound, 0.1 mM FdL-1 peptide, 0.5 mM NAD+
# [2] = 100 μM compound, 0.1 mM FdL-2 peptide, 0.5 mM NAD+
# T1 sequence (Q8N6T7 13-308): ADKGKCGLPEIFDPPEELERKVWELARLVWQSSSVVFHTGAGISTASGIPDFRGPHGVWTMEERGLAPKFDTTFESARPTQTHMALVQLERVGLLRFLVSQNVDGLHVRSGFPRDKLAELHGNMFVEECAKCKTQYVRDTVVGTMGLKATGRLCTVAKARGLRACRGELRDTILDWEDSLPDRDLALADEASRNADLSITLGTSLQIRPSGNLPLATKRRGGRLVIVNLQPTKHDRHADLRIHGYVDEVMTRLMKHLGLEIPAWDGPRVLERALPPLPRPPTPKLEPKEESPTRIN
SMILES,Effect on the activity of Sirt6 (Sirt6),Effect on the activity of Sirt3 (Sirt3),Effect on the activity of Sirt5 (Sirt5),Effect on the activity of Sirt2 (Sirt2),Effect on the activity of Sirt6 (Sirt6; [1]),Effect on the activity of Sirt3 (Sirt3; [2]),Effect on the activity of Sirt5 (Sirt5; [1]),Effect on the activity of Sirt2 (Sirt2; [2])
"C[C@]12CC[C@H]3[C@@H](CCC4=CC(=O)CC[C@@H]43)[C@@H]1CCC2OC1(O)C(=O)c2ccccc2C1=O (some centres unmarked) [CSC16, 2-hydroxy-2-((3-oxoestr-4-en-17-yl)oxy)-1H-indene-1,3(2H)-dione]",--- (key: inhibition: significant inhibitory effects (>25% loss of activity); ---: no such effect),--- (key: inhibition: significant inhibitory effects (>25% loss of activity); ---: no such effect),--- (key: inhibition: significant inhibitory effects (>25% loss of activity); ---: no such effect),--- (key: inhibition: significant inhibitory effects (>25% loss of activity); ---: no such effect),–,–,–,–
"O=C(Nc1ccc(Nc2ccc3c(c2)C(=O)c2ccccc2C3=O)c2c1C(=O)c1ccccc1C2=O)c1ccccc1 [CSC17, N-(4-((9,10-dioxo-9,10-dihydro-2-anthracenyl)amino)-9,10-dioxo-9,10-dihydro-1-anthracenyl)benzamide, (Indanthrene Corinth RK)]",–,–,–,–,--- (no such effect),--- (no such effect),--- (no such effect),--- (no such effect)
c1ccc(CN2COc3c(ccc4c5c(ccc34)CN(Cc3ccccc3)CO5)C2)cc1 [CSC18],–,–,–,–,--- (no such effect),--- (no such effect),--- (no such effect),--- (no such effect)
O=C1c2ccccc2C(C2c3ccccc3C(=O)c3cc(Br)ccc32)c2ccc(Br)cc21 (centres unmarked) [CSC19],–,–,–,–,--- (no such effect),--- (no such effect),--- (no such effect),--- (no such effect)
"O=C1c2ccccc2C(=O)N1c1ccc(Cc2ccc(N3C(=O)c4ccccc4C3=O)cc2)cc1 [CSC20, 2-(4-(4-(1,3-dioxo-1,3-dihydro-2H-isoindol-2-yl)benzyl)phenyl)-1H-isoindole-1,3(2H)-dione]",–,–,–,–,--- (no such effect),--- (no such effect),--- (no such effect),--- (no such effect)
"CN1C[C@H](C(=O)N[C@]2(C)O[C@@]3(O)[C@@H]4CCCN4C(=O)[C@H](Cc4ccccc4)N3C2=O)C=C2c3cccc4[nH]cc(c34)C[C@H]21 [CSC21, 5'-benzyl-12'-hydroxy-2'-methyl-3',6',18-trioxoergotaman, (Ergotamine), reference compound]",inhibition (key: inhibition: significant inhibitory effects (>25% loss of activity); ---: no such effect),--- (key: inhibition: significant inhibitory effects (>25% loss of activity); ---: no such effect),inhibition (key: inhibition: significant inhibitory effects (>25% loss of activity); ---: no such effect),inhibition (key: inhibition: significant inhibitory effects (>25% loss of activity); ---: no such effect),–,–,–,–
"N=C(c1ccc2ccccc2c1)c1ccccc1Cc1ccccc1 [CSC22, (2-benzylphenyl)(2-naphthyl)methanimine]",–,–,–,–,--- (no such effect),--- (no such effect),--- (no such effect),inhibition (significant inhibitory effects (>25% loss of activity))
"Cc1cc(C)cc(C(=N)c2ccccc2Cc2cccc3ccccc23)c1 [CSC23, (3,5-dimethylphenyl)(2-(1-naphthylmethyl)phenyl)methanimine]",–,–,–,–,--- (no such effect),--- (no such effect),--- (no such effect),inhibition (significant inhibitory effects (>25% loss of activity))
